Experimental findings from ChEMBL document CHEMBL1127387, “Synthesis and structure-activity relationships of a series of penicillin-derived HIV proteinase inhibitors: heterocyclic ring systems containing P1' and P2' substituents” (J Med Chem, 1994) are described below.

Assay [1] deals with Human immunodeficiency virus type 1 protease (Human immunodeficiency virus 1, UniProt Q72874). Put plainly: In vitro inhibitory activity against HIV proteinase.
The test system of a further assay is C8166. Put plainly: Compound was tested for effective concentration against C8166 cell line. Type of assay: functional, cell-based. The note with it: Homo sapiens.
Another assay concerns MT4. Put plainly: Compound was tested for effective concentration against MT-4 cell line. Type of assay: functional, cell-based. The note with it: Homo sapiens.

pEC50, pIC50: −log10 of the molar value.

Turning to `CC(C)(C)NC(=O)[C@@H]1C[C@@H]2CCCC[C@@H]2CN1C[C@@H](O)CNC(=O)[C@@H]1N[C@@H](C(NC(=O)Cc2ccccc2)C(=O)NCc2ccccc2)SC1(C)C` (stereo partly specified), the pIC50 (as a rule, −log10 of the IC50, conventionally taken in molar units) in assay [1] is 7.64. The pEC50 – broadly, the negative decadic logarithm of the EC50, by convention in mol/L – is 7.30 with C8166 and 6.46 in the assay on MT4.
For `CC(C)(C)NC(=O)[C@@H]1C[C@@H]2CCCC[C@@H]2CN1CC(O)CNC(=O)[C@@H]1N[C@@H](C(NC(=O)Cc2ccccc2)C(=O)NCCNC(=O)CCCC[C@@H]2SC[C@@H]3NC(=O)N[C@@H]32)SC1(C)C` (stereo partly specified), the pIC50 in assay [1] is 6.92. For the same molecule, the pEC50 in the assay with MT4 was 4.74.
Take `CC(C)(C)NC(=O)[C@@H]1C[C@@H](OC(C)(C)C)CN1CC(O)CNC(=O)[C@@H]1N[C@@H](C(NC(=O)Cc2ccccc2)C(=O)NCc2ccccc2)SC1(C)C` (stereo partly specified): in assay [1], the pIC50 was 5.80.
The molecule `CCO[C@@H]1C[C@@H](C(=O)NC(C)(C)C)N(C[C@@H](O)CNC(=O)[C@@H]2N[C@@H](C(NC(=O)Cc3ccccc3)C(=O)NCc3ccccc3)SC2(C)C)C1` (stereo partly specified) showed a pIC50 in assay [1] of under 4.46.
Same read-out and setting: as for `CC(C)(C)NC(=O)[C@@H]1C[C@@H](O)CN1CC(O)CNC(=O)[C@@H]1N[C@@H](C(NC(=O)Cc2ccccc2)C(=O)NCc2ccccc2)SC1(C)C` (stereo partly specified), the figure is 5.29.
`CCNC(=O)C(NC(=O)Cc1ccccc1)[C@@H]1N[C@@H](C(=O)NCC(O)CN2C[C@H]3CCCC[C@H]3C[C@H]2C(=O)NC(C)(C)C)C(C)(C)S1` (stereo partly specified) had a pIC50 in assay [1] of 7.51. Further, the values for the pEC50 in the assay on C8166 and with MT4 were 6.13 and 6.37, respectively.
For `CC(C)(C)NC(=O)[C@@H]1C[C@@H]2CCCC[C@@H]2CN1C[C@@H](O)CNC(=O)[C@@H]1N[C@@H](C(NC(=O)Cc2ccccc2)C(N)=O)SC1(C)C` (stereo partly specified), the pIC50 in assay [1] was 7.64. The pEC50 was 6.92 in the assay with C8166 and 6.23 in the assay with MT4.
As for `CC(C)(C)NC(=O)[C@@H]1CCCN1CC(O)CNC(=O)[C@@H]1N[C@@H](C(NC(=O)Cc2ccccc2)C(=O)NCc2ccccc2)SC1(C)C` (stereo partly specified) [listing 1 of 2 here], the pIC50 in assay [1] was 5.82.
The molecule `CC(C)(C)NC(=O)[C@@H]1CCCCN1C[C@H](O)CNC(=O)[C@@H]1N[C@@H](C(NC(=O)Cc2ccccc2)C(=O)NCc2ccccc2)SC1(C)C` (stereo partly specified) gave a pIC50 in assay [1] of under 5.66.
Turning to `CC(C)(C)NC(=O)[C@@H]1C[C@@H]2CCCC[C@@H]2CN1C[C@@H](O)[C@H](Cc1ccccc1)NC(=O)[C@H](CC(N)=O)NC(=O)c1ccc2ccccc2n1`, the negative-log EC50 (pEC50) in the assay on C8166 and in the assay with MT4 was 8.70 in each case.
As to `CC(C)(C)NC(=O)[C@@H]1C[C@@H]2CCCC[C@@H]2CN1C[C@H](O)CNC(=O)[C@@H]1N[C@@H](C(NC(=O)Cc2ccccc2)C(=O)NCc2ccccc2)SC1(C)C` (stereo partly specified), the pIC50 in assay [1] is 6.80. Also, in the assay on MT4, the pEC50 is 4.87.
As to `CCNC(=O)C(NC(=O)Cc1ccccc1)[C@@H]1N[C@@H](C(=O)NCC(O)CN(C)[C@@H](CC2CCCCC2)C(=O)NC(C)(C)C)C(C)(C)S1` (stereo partly specified), the pIC50 in assay [1] was 6.15.
Consider `CC(C)(C)NC(=O)C1N(C[C@H](O)CNC(=O)[C@@H]2N[C@@H](C(NC(=O)Cc3ccccc3)C(=O)NCc3ccccc3)SC2(C)C)C(C)(C)SC1(C)C` (stereo partly specified), for which, in assay [1], the negative-log IC50 (pIC50) was 7.03.
In assay [1], `CC(C)(C)NC(=O)[C@@H]1CCCN1CC(O)CNC(=O)[C@@H]1N[C@@H](C(NC(=O)Cc2ccccc2)C(=O)NCc2ccccc2)SC1(C)C` (stereo partly specified) [listing 2 of 2 here] gave a pIC50 of 5.51.
Regarding `CC(C)(C)NC(=O)C1N(C[C@@H](O)CNC(=O)[C@@H]2N[C@@H](C(NC(=O)Cc3ccccc3)C(=O)NCc3ccccc3)SC2(C)C)C(C)(C)SC1(C)C` (stereo partly specified), the pIC50 in assay [1] is 6.72.
Molecule `CC(C)(C)NC(=O)[C@@H]1C[C@@H]2CCCC[C@@H]2CN1CC(O)CNC(=O)[C@@H]1N[C@@H](C(NC(=O)Cc2ccccc2)C(=O)NCCNC(=O)OC(C)(C)C)SC1(C)C` (stereo partly specified) had a negative logarithm of the IC50 (pIC50) in assay [1] of 6.80. For the same molecule, the pEC50 in the assay on C8166 is 7.00; with MT4, 7.28.
For `CC(C)(C)NC(=O)[C@@H]1C[C@@H]2CCCC[C@@H]2CN1C[C@H](O)CNC(=O)[C@@H]1N[C@@H](C(NC(=O)Cc2ccccc2)C(=O)NCC2CCCCC2)SC1(C)C` (stereo partly specified), the pIC50 in assay [1] is 6.52.
In assay [1], `CC(C)(C)NC(=O)[C@@H]1CCCCN1C[C@@H](O)CNC(=O)[C@@H]1N[C@@H](C(NC(=O)Cc2ccccc2)C(=O)NCc2ccccc2)SC1(C)C` (stereo partly specified) had a pIC50 of 5.19.
`CCCCCCCNC(=O)C(NC(=O)Cc1ccccc1)[C@@H]1N[C@@H](C(=O)NCC(O)CN2C[C@H]3CCCC[C@H]3C[C@H]2C(=O)NC(C)(C)C)C(C)(C)S1` (stereo partly specified): the pIC50 in assay [1] is 7.07. In the assay on MT4, this molecule had a pEC50 of under 4.00.
Take `CC1(C)S[C@H](C(NC(=O)Cc2ccccc2)C(=O)NCc2ccccc2)N[C@H]1C(=O)N[C@H](Cc1ccccc1)[C@H](O)CC(=O)NCc1ccccc1` (stereo partly specified): the pIC50 in assay [1] was 5.34.
The same measure, in the same setting: next, `CC(C)(C)NC(=O)[C@H]1CN(C(=O)Oc2ccccc2)CCN1C[C@@H](O)CNC(=O)[C@@H]1N[C@@H](C(NC(=O)Cc2ccccc2)C(=O)NCc2ccccc2)SC1(C)C` (stereo partly specified): 7.09; `CC(C)(C)NC(=O)[C@@H]1C[C@H](OCc2ccccc2)CN1CC(O)CNC(=O)[C@@H]1N[C@@H](C(NC(=O)Cc2ccccc2)C(=O)NCc2ccccc2)SC1(C)C` (stereo partly specified): 6.19.
Still for that read-out and setting: as for `CC(C)(C)NC(=O)[C@H]1N(CC(O)CNC(=O)[C@@H]2N[C@@H]([C@H](NC(=O)Cc3ccccc3)C(=O)NCc3ccccc3)SC2(C)C)CSC1(C)C` (stereo partly specified), the figure is 7.68.
Take `CN(C)c1ccc(CNC(=O)C(NC(=O)Cc2ccccc2)[C@@H]2N[C@@H](C(=O)NC[C@H](O)CN3C[C@H]4CCCC[C@H]4C[C@H]3C(=O)NC(C)(C)C)C(C)(C)S2)cc1` (stereo partly specified): the pIC50 in assay [1] was 7.59. Also, the pEC50 with C8166 was 6.57; in the assay on MT4, 6.28.
The molecule `C[C@@H](C(=O)NC(C)(C)C)N(CC(O)CNC(=O)[C@@H]1N[C@@H](C(NC(=O)Cc2ccccc2)C(=O)NCc2ccccc2)SC1(C)C)CC1CCCCC1` (stereo partly specified) showed a pIC50 in assay [1] of 5.19.
Molecule `COC(=O)C(NC(=O)Cc1ccccc1)[C@@H]1N[C@@H](C(=O)NC[C@H](O)CN2C[C@H]3CCCC[C@H]3C[C@H]2C(=O)NC(C)(C)C)C(C)(C)S1` (stereo partly specified) had a pIC50 in assay [1] of 7.27. Also, the pEC50 with MT4 is 5.41.
`CCO[C@@H]1C[C@@H](C(=O)NC(C)(C)C)N(C[C@H](O)CNC(=O)[C@@H]2N[C@@H](C(NC(=O)Cc3ccccc3)C(=O)NCc3ccccc3)SC2(C)C)C1` (stereo partly specified) gave a pIC50 in assay [1] of under 4.46.
`CC(C)(C)NC(=O)[C@@H]1CSCN1CC(O)CNC(=O)[C@@H]1N[C@@H](C(NC(=O)Cc2ccccc2)C(=O)NCc2ccccc2)SC1(C)C` (stereo partly specified): the pIC50 in assay [1] was 6.35.
In turn, `CCNC(=O)C(NC(=O)Cc1ccccc1)[C@@H]1N[C@@H](C(=O)NCCNC(=O)[C@@H]2N[C@@H]([C@H](NC(=O)Cc3ccccc3)C(=O)NCC)SC2(C)C)C(C)(C)S1` (stereo partly specified) gave a pIC50 in assay [1] of 8.30. This molecule gave a pEC50 in the assay on MT4 of 5.27.
In turn, `CC(C)(C)NC(=O)[C@@H]1CN(C(=O)Oc2ccccc2)CCN1C[C@@H](O)CNC(=O)[C@@H]1N[C@@H](C(NC(=O)Cc2ccccc2)C(=O)NCc2ccccc2)SC1(C)C` (stereo partly specified) gave a pIC50 in assay [1] of 7.24.
